Reference: patent US6878702B2, “Anti-inflammatory agents” (Orion Corporation, priority 2000, dated 2005)

How the values were obtained:
[1] = tested on: mitochondrial KATP channel; experiment: Mitochondrial ATP dependent potassium channel opening: membrane potential (ΔΨ) of isolated liver mitochondria, rhodamine 123; format: biochemical, rat; settings: for ΔΨ of rat liver mitochondria in the choline chloride medium / ΔΨ of rat liver mitochondria in KCl medium: <2.58 μM concentration; for ΔΨ of rat liver mitochondria in KCl medium: respiring only on endogenous substrates, KCl medium with 400 μM ATP and 1 mg oligomycin/mg protein, FIG. 2; for effect on ΔΨ in presence of 5-hydroxydecanoate (5-HD), selective blocker of mitochondrial KATP channel: with 5-HD, data not shown
Excerpt: In respiring mitochondria, the decrease in ΔΨ due to the KATP channel opening is compensated by an increased respiration rate. When mitochondria respires only on endogenous substrates, and phosphorylation is blocked by oligomycin, the respiration rate is sufficient to generate a high ΔΨ. However, opening of KATP channels leads to a decrease in ΔΨ, which could not be compensated by increased respiration rate. In such a model, opening of KATP channel is unmasked, and can be recorded. This model was applied to test if opening could be induced by dextrosimendan and levosimendan.
Mitochondria were isolated from rat livers by differential centrifugation in medium containing 210 mM mannitol, 70 mM sucrose, 10 mM Hepes, 1 mM EGTA and 5 mg/ml bovine serum albumin, pH 7.4. The mitochondrial protein concentration was determined by modified Biuret method. Oxygen consumption of isolated liver mitochondria was recorded at 25° C. by means of the Clark-type electrode system in the KCl medium (100 mM KCl, 2 mM KH2PO4, 10 mM HEPES, 1 mM MgCl2, pH 7.4 with TRIZMA base) or choline chloride medium (100 mM choline chloride, 2 mM NaH2PO4, 10 mM HEPES, 1 mM MgCl2, pH 7.4 with TRIZMA base). The final mitochondrial protein concentration used in experiments was 1 mg protein/ml. For studies of respiring mitochondria, 5 mM succinate in the presence of 5 μM rotenone was used as substrate.
Membrane potential (ΔΨ) of liver mitochondria was measured with rhodamine 123 as a fluorescent probe using the excitation at 503 nm and emission at 527 nm at room temperature with the Hitachi F4000 fluorometer. The difference in fluorescense between mitochondria with addition of FCCP (0.4 μM) and without it was taken as 100%, and decrease in membrane potential by the tested compounds was expressed in % of FCCP effect.

[2] = tested on: carrageenan-induced rat paw edema; experiment: Carrageenan-induced paw edema in rats; format: in vivo; settings: 3 h, male Wistar rats
Description: The acute inflammation was induced to the male Wistar rats by an injection of 0.1 ml of 1 or 2% lambda-carrageenan solution into the subplantar tissue of the right hind paw (=1 or 2 mg/paw). Three hours after the carrageenan injection the rats were killed. Both hind paws were cut off just above the heel and weighed. The test compounds (levosimendan and dextrosimendan) were administered orally 30 minutes before the induction of inflammation using dosing levels:
Control rats were included in each experiment. The difference between the weight of the right and the left hind paw was regarded as swelling. 9-10 animals were included in each group.

Row | SMILES | ΔΨ of rat liver mitochondria in the choline chloride medium [1] | ΔΨ of rat liver mitochondria in KCl medium [1] | effect on ΔΨ in presence of 5-hydroxydecanoate (5-HD), selective blocker of mitochondrial KATP channel [1] | carrageenan-induced rat paw edema (swelling, weight difference of hind paws) ([2]; carrageenan 2 mg/paw, 10, 30 and 100 mg/kg orally 30 min before, FIG. 3b) | melting point | carrageenan-induced rat paw edema (swelling, weight difference of hind paws) ([2]; carrageenan 1 mg/paw, 0.1, 1 and 10 mg/kg orally 30 min before, FIG. 3a)
1 | CC1CC(=O)NN=C1c1ccc(NN=C(C#N)C#N)cc1 (single isomer, unassigned; (+)) [Dextrosimendan] | did not significantly change | decreased | abolished | inhibited the carrageenan-induced rat paw edema significantly | – | –
2 | CC1SC(=O)NN=C1c1ccc(NN=C(C#N)C#N)cc1 (single isomer, unassigned; (+)) [compound B, (+)-[[4-(3,6-dihydro-6-methyl-2-oxo-2H-1,3,4-thiadiazin-5-yl)phenyl]hydrazono]propanedinitrile] | – | – | – | – | 125 to 128 °C | –
3 | C[C@@H]1CC(=O)NN=C1c1ccc(NN=C(C#N)C#N)cc1 [levosimendan, reference compound] | did not significantly change | decreased | abolished | – | – | inhibited the carrageenan-induced rat paw edema significantly
